Experimental data reported in US5703097A, “5-pyrrolyl-2-pyridylmethylsulfinyl benzimidazole derivatives” (priority 1994, dated 1997).

Key:
[1] = biological target: T1, H^+ /K^+ -ATPase (Oryctolagus cuniculus, UniProt P27112); test: Inhibition of enzyme activity: in vitro inhibition of H+/K+-ATPase (TEST 1); format: biochemical, rabbit; details: 5 min pre-incubation at 37° C., 4 mM ATP
T1 construct: The gastric mucous membrane was removed from a rabbit; from tissue; host or cells: rabbit gastric mucosa, microsomal fraction (77,000 g)
Protocol: In this test, omeprazole [5-methoxy-2-[[(4-methoxy-3,5-dimethyl-2-pyridinyl)methyl]sulfinyl]-1H-benzimidazole] was used as the control compound.
The gastric mucous membrane was removed from a rabbit and then centrifuged with 77,000 g using a ultra-centrifuge to separate the microsomal fraction which was used as the source of H^+ /K^+ -ATPase enzyme for this test. 60 μg of H^+ /K^+ -ATPase was pre-incubated with the sample (the compound according to the present invention) for 5 minutes at 37° C. and then 4 mM ATP as the substrate and 4 mM Mg^++, 20 mM K^+ as the cofactor were added thereto. Then, the amount of inorganic phosphorus thus produced was determined using a spectrophotometer at 660 nm and converted into the amount of protein. […]

[2] = system: gastric acidity; test: Effect on inhibition of acidity (total acid output), in vivo, Shay method (TEST 2); parameters: species or system rat (SD male rats); details: for Volume (acidity, total acid output) / Inhibition rate, acidity: 5 hours; for Volume (acidity, total acid output): pylorus-ligated rats; for Inhibition rate, acidity: vs normal group
Protocol: (§1) The specific test methods are as follows.
(§2) SD male rats (200±20 g) were fasted for 24 hours, except for water, and then anesthesized with ether. The abdomen of rats was incised and then the pylorus was ligated. The test compounds were suspended or dissolved in 5% CMC (carboxymethylcellulose) and injected into duodenum. After the abdomen was sutured, the rats were allowed to stand for 5 hours and then sacrificed with ether. The stomach was removed from rats and the gastric juices were collected. The gastric juice was centrifuged with 10,000 xg for 10 minutes at 4° C. to remove the precipitate. The amount of gastric juice and acidity were determined using pH 7.0 end point assay with 0.02N NaOH and then the total acid output was calculated.

[3] = system: ICR (male, female) mouse; test: in vivo; details: po
Protocol: (§3) Five weeks aged ICR (male, female) mouse were pre-bred in the breeding cage for one week and then the animals showing a smooth gain in body weight were randomly selected and used in this test. The amount to be administered to the test animals was established on the basis of the maximum dose of 4,000 mg/kg with the common ratio of 1.5.
(§4) The test compounds in a powder form were suspended in 0.5% methylcellulose and administered per oral using a syringe. The other specific conditions for administration are described in the following.
(§5) In the above test, the control group received only 0.5% methylcellulose.

[4] = in vivo; details: mouse, po
Protocol: as §3, §4, §5

[5] = system: gastric juice secretion; test: Effect on inhibition of gastric juice secretion, in vivo, Shay method (TEST 2); parameters: species or system rat (SD male rats); details: for Volume of gastric juice / Inhibition rate, gastric juice secretion: 5 hours; for Volume of gastric juice: pylorus-ligated rats; for Inhibition rate, gastric juice secretion: vs normal group
Protocol: as §1, §2

[6] = in words, even at a lower dose than that of the known anti-ulcer agent

T1 sequence (P27112 2-1035 limits assumed): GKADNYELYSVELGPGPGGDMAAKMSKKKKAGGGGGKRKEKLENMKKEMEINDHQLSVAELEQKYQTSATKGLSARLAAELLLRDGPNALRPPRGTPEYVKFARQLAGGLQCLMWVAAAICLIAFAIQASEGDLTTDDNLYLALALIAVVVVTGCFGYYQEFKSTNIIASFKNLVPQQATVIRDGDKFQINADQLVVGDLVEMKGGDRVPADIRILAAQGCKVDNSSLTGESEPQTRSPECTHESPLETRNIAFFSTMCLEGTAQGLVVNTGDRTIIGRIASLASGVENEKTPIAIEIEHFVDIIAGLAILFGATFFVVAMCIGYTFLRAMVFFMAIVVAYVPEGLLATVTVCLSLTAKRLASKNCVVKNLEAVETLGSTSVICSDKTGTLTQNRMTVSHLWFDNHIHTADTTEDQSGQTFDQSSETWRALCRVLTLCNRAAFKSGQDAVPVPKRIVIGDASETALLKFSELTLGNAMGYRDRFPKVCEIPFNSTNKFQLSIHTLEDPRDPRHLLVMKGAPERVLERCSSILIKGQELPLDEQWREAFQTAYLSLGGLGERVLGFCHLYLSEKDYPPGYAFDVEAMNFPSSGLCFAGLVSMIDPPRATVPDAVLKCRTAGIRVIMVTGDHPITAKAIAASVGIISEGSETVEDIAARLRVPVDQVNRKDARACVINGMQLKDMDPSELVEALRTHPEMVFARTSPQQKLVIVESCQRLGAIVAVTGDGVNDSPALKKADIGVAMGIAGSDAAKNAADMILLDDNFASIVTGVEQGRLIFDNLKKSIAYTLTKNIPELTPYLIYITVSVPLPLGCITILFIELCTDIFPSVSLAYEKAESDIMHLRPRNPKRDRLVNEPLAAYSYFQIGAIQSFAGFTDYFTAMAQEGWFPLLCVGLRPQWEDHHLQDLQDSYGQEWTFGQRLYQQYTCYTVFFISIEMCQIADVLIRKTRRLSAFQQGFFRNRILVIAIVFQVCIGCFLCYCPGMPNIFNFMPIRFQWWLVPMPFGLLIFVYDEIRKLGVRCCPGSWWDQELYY
T1 sequence (P18597 whole entry partner): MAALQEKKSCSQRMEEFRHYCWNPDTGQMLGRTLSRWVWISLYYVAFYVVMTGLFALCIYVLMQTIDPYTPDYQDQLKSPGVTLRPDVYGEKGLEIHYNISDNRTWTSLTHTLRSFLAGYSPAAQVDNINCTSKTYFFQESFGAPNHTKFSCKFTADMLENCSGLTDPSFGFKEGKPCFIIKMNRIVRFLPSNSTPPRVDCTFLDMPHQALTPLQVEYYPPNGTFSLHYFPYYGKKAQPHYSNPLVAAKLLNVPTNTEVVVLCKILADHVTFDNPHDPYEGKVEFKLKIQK

In the case of `COc1ccnc(C[S+]([O-])c2nc3cc(-n4cccc4)ccc3[nH]2)c1C` (stereo not drawn) [Compound 2, 2-[[(4-methoxy-3-methyl)-2-pyridinyl]methylsulfinyl]-5-(1H-pyrrol-1-yl)-1H-benzimidazole], the IC50 [1] is reported as 23 µM, the “Volume (acidity, total acid output)” value ([2]; 3 mg/kg, into duodenum) is reported as 31.09 ± 4.10 μ Eq/hr and the “Inhibition rate, acidity” value ([2]; 3 mg/kg, into duodenum) is reported as 60.08%. The “Volume (acidity, total acid output)” value ([2]; 10 mg/kg, into duodenum) was 10.20 ± 1.93 μ Eq/hr, the “Inhibition rate, acidity” value ([2]; 10 mg/kg, into duodenum) was 86.90% and the “Volume (acidity, total acid output)” value ([2]; 30 mg/kg, into duodenum) was 5.32 ± 3.30 μ Eq/hr. The “Inhibition rate, acidity” value ([2]; 30 mg/kg, into duodenum) was 93.17%, the ED50 ([2]; Rattus norvegicus, 5 h, rats, into duodenum) was 1.6 mg/kg and the “effect for lowering acidity” value ([2]; in words) was “good effects”. The acidity lowering effect [2, 6] was “high acidity lowering effect”, the LD50 [3] was over 4000.0 mg/kg and the “change in body weight” value [3] was “does not affect the normal change in body weight”. The “change in internal and external organs” value [3] was “no effect on the internal and external organs”, the safety [3] was “very safe compound” and the LD50 [4] was at least 4000 mg/kg. For the same compound, the “Volume of gastric juice” value ([5]; 3 mg/kg, into duodenum) was 1.98 ± 0.23 ml/100 g BW, the “Inhibition rate, gastric juice secretion” value ([5]; 3 mg/kg, into duodenum) was 46.45% and the “Volume of gastric juice” value ([5]; 10 mg/kg, into duodenum) was 1.31 ± 0.10 ml/100 g BW. The “Inhibition rate, gastric juice secretion” value ([5]; 10 mg/kg, into duodenum) was 64.55%, the “Volume of gastric juice” value ([5]; 30 mg/kg, into duodenum) was 0.99 ± 0.14 ml/100 g BW and the “Inhibition rate, gastric juice secretion” value ([5]; 30 mg/kg, into duodenum) was 73.11%. The ED50 ([5]; Rattus norvegicus, 5 h, rats, into duodenum, read-out: ED50 for the effect on inhibition of gastric acid secretion) was 3.6 mg/kg, the “effect for inhibition of gastric acid secretion” value ([5]; in words) was “good effects” and the “inhibition of gastric juice secretion” value [5, 6] was “strong inhibition of gastric juice secretion”.
